Assay results: patent publication US8389505B2, “Adamantane derivatives of AZA-crown ethers and their use in treatment of tumor” (Rudjer Boskovic Institute, priority 2009, dated 2013)

Columns and labels:
Assay type in all cases: cell-based
SW 620 (colon carcinoma) = test: MTT proliferation assay, SW 620 cells; conditions: Homo sapiens, 72 hours incubation, read-out: IC50 (concentration that causes 50% growth inhibition), SW 620
Method: (§1) The described assay was used to test the effects of compounds on the proliferation of various human tumor cell lines, whereby cytostatic and cytotoxic effects on cells can be differentiated. The experiments were carried out on human cell lines, which were derived from 6 tumor types. The following cell lines were used: MCF-7 (breast carcinoma), SW 620 (colon carcinoma), HCT 116 (colon carcinoma), MOLT-4 (acute lymphoblastic leukemia), H 460 (lung carcinoma), HeLa (cervical carcinoma), MiaPaCa-2 (pancreatic carcinoma).
(§2) MCF-7, SW 620, HCT 116, HeLa, MiaPaCa-2 and H 460 cell lines were cultured as monolayers and maintained in Dulbecco's modified Eagle medium (DMEM), while MOLT-4 cells were cultured in suspension in nutritive medium RPMI 1640, both supplemented with 10% fetal bovine serum (FBS), 2 mM L-glutamine, 100 U/ml penicillin and 100 μg/ml streptomycin in a humidified atmosphere with 5% CO2 at 37° C.
(§3) The panel cell lines were inoculated onto a series of standard 96-well microtiter plates on day 0, at 1×10^4 to 3×10^4 cells/ml, depending on the doubling times of the specific cell line. Test agents were added next day to the cell lines in five consecutive 10-fold dilutions (10^−8 to 10^−4 M) and incubated for a further 72 hours. Working dilutions were freshly prepared on the day of testing. The solvent (DMSO) was also tested for eventual inhibitory activity by adjusting its concentration to be the same as in working concentrations. After 72 hours of incubation the cell growth rate was evaluated by performing the MTT assay (Mossman, Methods Immunol, 1983, 65, 55-63.), which detects dehydrogenase activity in viable cells. The MTT Cell Proliferation Assay is a colorimetric assay system, which measures the reduction of a tetrazolium component (MTT) into an insoluble formazan produced by mitochondria of viable cells. For this purpose the substance treated medium was discarded and MTT was added to each well in concentration of 20 μg/40 μl. After four hours of incubation the precipitates were dissolved in 160 μl of dimethylsulphoxide (DMSO). The absorbance (OD, optical density) was measured on a microplate reader at 570 nm. The absorbance is directly proportional to the cell viability. The percentage of growth (PG) of the cell lines was calculated according to one of the following two equations (according to the National Cancer Institute protocols, www.dtp.nci.nih.gov): If (mean ODtest−mean ODtzero)≧0 then PG=100×(mean ODtest−mean ODtzero)/(mean ODctrl−mean ODtzero). If (mean ODtest−mean ODtzero)<0 then: PG=100×(mean ODtest−mean ODtzero)/ODtzero.
(§4) Mean ODtzero=the average of optical density measurements before exposure of cells to the test compound.
(§5) Mean ODtest=the average of optical density measurements after the desired period of time.
(§6) Mean ODctrl=the average of optical density measurements after the desired period of time with no exposure of cells to the test compound.
(§7) Each test point was performed in quadruplicate in three individual experiments. The results were expressed as IC50, a concentration necessary for 50% of proliferation inhibition. Each result is a mean value from three separate experiments. The IC50 measures the growth inhibitory power of the test agent and represents the concentration that causes 50% growth inhibition. The IC50 is calculated from dose-response curves using linear regression analysis by fitting the test concentrations that give PG values above and below the respective reference value (e.g. 50% of inhibition for IC50). Therefore, a “real” value for any of the response parameters is obtained only if at least one of the tested drug concentrations falls above, and likewise at least one falls below the respective reference value. If however, for a given cell line or test agent all of the tested concentrations produce PGs exceeding the respective reference level of effect (e.g. PG value of 50%), then the highest tested concentration is assigned as the default value. […]

H 460 (lung carcinoma) = test: MTT proliferation assay, H 460 cells; conditions: Homo sapiens, NCI-H460, 72 hours incubation, read-out: IC50 (concentration that causes 50% growth inhibition), H 460
Method: as §1, §2, §3, §4, §5, §6, §7

[1] = test system: HCT 116 (colon carcinoma); test: MTT proliferation assay, HCT 116 cells; conditions: Homo sapiens, 72 hours incubation, read-out: IC50 (concentration that causes 50% growth inhibition), HCT 116
Method: as §1, §2, §3, §4
(§8) Mean ODtest=the average of optical density measurements after the desired period of time. […]

MCF-7 (breast carcinoma) = test: MTT proliferation assay, MCF-7 cells; conditions: Homo sapiens, MCF7, 72 hours incubation, read-out: IC50 (concentration that causes 50% growth inhibition), MCF-7
Method: as §1, §2, §3, §4, §5, §6, §7

[2] = test system: MOLT-4 (acute lymphoblastic leukemia); test: MTT proliferation assay, MOLT-4 cells; conditions: Homo sapiens, 72 hours incubation, read-out: IC50 (concentration that causes 50% growth inhibition), MOLT-4
Method: as §1, §2, §3, §4, §8

[3] = test system: HeLa (cervical carcinoma); test: MTT proliferation assay, HeLa cells; conditions: Homo sapiens, 72 hours incubation, read-out: IC50 (concentration that causes 50% growth inhibition), Hela
Method: as §1, §2, §3, §4, §5, §6, §7

[4] = test system: MiaPaCa-2 (pancreatic carcinoma); test: MTT proliferation assay, MiaPaCa-2 cells; conditions: Homo sapiens, MIA PaCa-2, 72 hours incubation, read-out: IC50 (concentration that causes 50% growth inhibition), MiaPaCa-2
Method: as §1, §2, §3, §4, §5, §6, §7

[5] = test system: various human tumor cell lines; test: MTT proliferation assay, panel of tumor cell lines; conditions: up to maximal tested concentration (c=100 μM) during 72 hours, all cell lines of Table 1
Method: as §1, with “carcinoma). […]” for “carcinoma).”
The panel cell lines were inoculated onto a series of standard 96-well microtiter plates on day 0, at 1×10^4 to 3×10^4 cells/ml, depending on the doubling times of the specific cell line. […] After 72 hours of incubation the cell growth rate was evaluated by performing the MTT assay (Mossman, Methods Immunol, 1983, 65, 55-63.), which detects dehydrogenase activity in viable cells. […] The absorbance (OD, optical density) was measured on a microplate reader at 570 nm. The absorbance is directly proportional to the cell viability. The percentage of growth (PG) of the cell lines was calculated according to one of the following two equations (according to the National Cancer Institute protocols, www.dtp.nci.nih.gov): If (mean ODtest−mean ODtzero)≧0 then PG=100×(mean ODtest−mean ODtzero)/(mean ODctrl−mean ODtzero). […]

IC50 (SW 620 (colon carcinoma)) [µM]	IC50 (H 460 (lung carcinoma)) [µM]	IC50 [1] [µM]	IC50 (MCF-7 (breast carcinoma)) [µM]	IC50 [2] [µM]	IC50 [3] [µM]	IC50 [4] [µM]	Structure (SMILES)	antiproliferative activity [5]
> 100	> 100		> 100		> 100	> 100	O=C(CC12CC3CC(CC(C3)C1)C2)N1CCOCCOCCOCCOCCOCC1 [Compound 3, N-[1-oxo-2-(1-adamantyl)ethyl]-aza-18-crown-6]	
12 ± 5	14 ± 1	6	5 ± 2	6 ± 6			O=C(CC12CC3CC(CC(C3)C1)C2)N1CCOCCOCCN(C(=O)CC23CC4CC(CC(C4)C2)C3)CCOCCOCC1 [Compound 7, N,N′-Bis[1-oxo-2-(1-adamantyl)ethyl]-4,13-diaza-18-crown-6]	
13 ± 2	72 ± 7		17 ± 5		28 ± 7	30 ± 3.4	O=C(CCC12CC3CC(CC(C3)C1)C2)N1CCOCCOCCOCCOCCOCC1 [Compound 4, N-[1-oxo-3-(1-adamantyl)propyl]-aza-18-crown-6]	
9 ± 3	15 ± 0.1		6 ± 5		14 ± 3	11 ± 2	C(CN1CCOCCOCCOCCOCCOCC1)CC12CC3CC(CC(C3)C1)C2 [Compound 2, N-[3-(1-adamantyl)propyl]-aza-18-crown-6]	
9 ± 6	15 ± 0.6		8 ± 4		16 ± 0.5	12 ± 0.6	C1COCCOCCN(CCC23CC4CC(CC(C4)C2)C3)CCOCCOCCO1 [Compound 1, N-[2-(1-adamantyl)ethyl]-aza-18-crown-6]	

Second part, the compound before the results:

Structure (SMILES)	IC50 (SW 620 (colon carcinoma)) [µM]	IC50 (H 460 (lung carcinoma)) [µM]	IC50 [1] [µM]	IC50 (MCF-7 (breast carcinoma)) [µM]	IC50 [2] [µM]	IC50 [3] [µM]	IC50 [4] [µM]	antiproliferative activity [5]
O=C(CCC12CC3CC(CC(C3)C1)C2)N1CCOCCOCCN(C(=O)CCC23CC4CC(CC(C4)C2)C3)CCOCCOCC1 [Compound 8, N,N′-Bis[1-oxo-3-(1-adamantyl)propyl]-4,13-diaza-18-crown-6]	19 ± 16	11 ± 5	6 ± 4	2 ± 0.4	3 ± 0.5			
C(CN1CCOCCOCCN(CCCC23CC4CC(CC(C4)C2)C3)CCOCCOCC1)CC12CC3CC(CC(C3)C1)C2 [Compound 6, N,N″-Bis[3-(1-adamantyl)propyl]-4,13-diaza-18-crown-6]	1 ± 0.4	0.2 ± 0.3	0.4 ± 0.4	1 ± 0.4	1 ± 1			
C1COCCN(CCC23CC4CC(CC(C4)C2)C3)CCOCCOCCN(CCC23CC4CC(CC(C4)C2)C3)CCO1 [Compound 5, N,N′-Bis[2-(1-adamantyl)ethyl]-4,13-diaza-18-crown-6]	2.6 ± 1.9	4 ± 3		4 ± 0.7		2.3 ± 1.4	1.7 ± 0.6	
C1COCCOCCNCCOCCOCCN1 [Diaza-18-crown-6, diaza-18-crown-6, reference compound]	> 100	> 100	> 100	> 100	> 100	> 100	> 100	did not show any antiproliferative activity
